Measured values as given in BindingDB's records for doi:10.1016/0960-894X(96)00012-1 (1996).

Molecular target: T1, Acetylcholinesterase (Bos taurus, UniProt P23795)
T1 sequence (P23795 whole entry): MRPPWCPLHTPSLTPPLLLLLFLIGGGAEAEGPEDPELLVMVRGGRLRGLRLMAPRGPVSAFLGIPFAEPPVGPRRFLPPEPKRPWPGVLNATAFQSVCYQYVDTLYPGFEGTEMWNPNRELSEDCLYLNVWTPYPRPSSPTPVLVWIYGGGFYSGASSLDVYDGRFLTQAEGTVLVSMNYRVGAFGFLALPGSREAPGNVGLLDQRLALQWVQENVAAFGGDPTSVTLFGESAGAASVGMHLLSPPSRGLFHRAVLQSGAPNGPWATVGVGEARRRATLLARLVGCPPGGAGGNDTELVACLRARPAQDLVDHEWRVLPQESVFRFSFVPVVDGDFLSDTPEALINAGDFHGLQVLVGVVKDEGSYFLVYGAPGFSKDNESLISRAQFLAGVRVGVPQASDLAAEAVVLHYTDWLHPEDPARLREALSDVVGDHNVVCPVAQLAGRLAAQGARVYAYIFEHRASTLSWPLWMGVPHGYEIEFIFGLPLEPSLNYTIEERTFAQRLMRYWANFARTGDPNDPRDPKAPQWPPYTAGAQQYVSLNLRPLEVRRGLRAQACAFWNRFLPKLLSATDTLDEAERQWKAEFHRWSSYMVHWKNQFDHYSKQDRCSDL
Assay: Kinetic constant for inhibition of fetal bovine serum acetylcholinesterase
Conditions: for kon: read-out: kon (M-1-s-1)

Compound	kon [M⁻¹ s⁻¹]	kon (M-1-s-1)
C/C=C1\C2C=C(C)C[C@]1(N)c1ccc(=O)[nH]c1C2(C)C [(R)-1-Amino-13-ethylidene-8,8,11-trimethyl-6-aza-tricyclo[7.3.1.0*2,7*]trideca-2(7),3,10-trien-5-one]	0.013	–
C/C=C1\[C@H]2C=C(C)C[C@@]1(N)c1ccc(=O)[nH]c1C2 [Huperzine A]	0.057	0.05667 M-1-s-1
